Measurements: PMC6199744, “Development of Chemical Proteomics for the Folateome and Analysis of the Kinetoplastid Folateome” (ACS Infectious Diseases, 2018)
Where two headings read alike, the source gives them in different places.

What was measured:
Type in all cases: binding
[1] = target: T1, HeLa cell extract proteins (Homo sapiens, UniProt P25786); settings: protein PSMA1; HeLa
T1 construct: endogenous in cells; host or cells: HeLa cell extract

[2] = target: T2, HeLa cell extract proteins (Homo sapiens, UniProt Q13501); settings: HeLa; protein SQSTM1
T2 construct: endogenous in cells; host or cells: HeLa cell extract
T2 sequence (Q13501 whole entry): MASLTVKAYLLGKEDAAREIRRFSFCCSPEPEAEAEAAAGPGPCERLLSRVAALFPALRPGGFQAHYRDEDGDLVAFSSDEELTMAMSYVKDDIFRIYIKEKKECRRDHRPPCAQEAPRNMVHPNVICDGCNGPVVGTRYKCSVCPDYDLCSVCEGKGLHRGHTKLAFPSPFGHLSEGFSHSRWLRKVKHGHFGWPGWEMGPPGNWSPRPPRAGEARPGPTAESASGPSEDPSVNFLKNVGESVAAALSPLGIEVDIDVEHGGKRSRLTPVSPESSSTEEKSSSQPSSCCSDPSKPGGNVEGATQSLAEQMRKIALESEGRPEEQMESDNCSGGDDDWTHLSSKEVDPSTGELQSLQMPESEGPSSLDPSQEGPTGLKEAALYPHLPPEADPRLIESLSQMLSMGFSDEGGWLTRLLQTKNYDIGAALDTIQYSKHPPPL

[3] = target: T3, HeLa cell extract proteins (Homo sapiens, UniProt Q9BW92)
T3 construct: endogenous in cells; host or cells: HeLa cell extract
T3 sequence (Q9BW92 1-718): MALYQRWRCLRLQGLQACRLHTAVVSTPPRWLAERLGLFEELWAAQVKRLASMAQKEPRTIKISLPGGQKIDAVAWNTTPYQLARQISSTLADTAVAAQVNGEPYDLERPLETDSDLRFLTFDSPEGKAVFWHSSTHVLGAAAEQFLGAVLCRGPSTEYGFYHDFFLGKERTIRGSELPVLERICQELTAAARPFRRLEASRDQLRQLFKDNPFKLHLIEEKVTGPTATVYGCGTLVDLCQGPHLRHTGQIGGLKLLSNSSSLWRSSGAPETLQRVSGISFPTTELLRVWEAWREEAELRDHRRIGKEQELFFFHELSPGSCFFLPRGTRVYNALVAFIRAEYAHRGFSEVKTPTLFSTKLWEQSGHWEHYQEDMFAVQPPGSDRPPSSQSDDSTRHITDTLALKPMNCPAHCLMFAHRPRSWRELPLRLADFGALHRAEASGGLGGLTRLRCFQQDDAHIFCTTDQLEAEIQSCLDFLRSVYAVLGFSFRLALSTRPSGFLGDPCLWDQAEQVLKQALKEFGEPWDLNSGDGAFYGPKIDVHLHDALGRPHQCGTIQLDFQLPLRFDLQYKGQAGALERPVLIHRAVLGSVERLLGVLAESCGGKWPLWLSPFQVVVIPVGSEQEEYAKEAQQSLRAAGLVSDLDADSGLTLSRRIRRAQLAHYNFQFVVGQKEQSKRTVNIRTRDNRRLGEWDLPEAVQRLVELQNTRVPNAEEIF

[4] = target: T4, HeLa cell extract proteins (Homo sapiens, UniProt O00505)
T4 construct: endogenous in cells; host or cells: HeLa cell extract
T4 sequence (O00505 1-521): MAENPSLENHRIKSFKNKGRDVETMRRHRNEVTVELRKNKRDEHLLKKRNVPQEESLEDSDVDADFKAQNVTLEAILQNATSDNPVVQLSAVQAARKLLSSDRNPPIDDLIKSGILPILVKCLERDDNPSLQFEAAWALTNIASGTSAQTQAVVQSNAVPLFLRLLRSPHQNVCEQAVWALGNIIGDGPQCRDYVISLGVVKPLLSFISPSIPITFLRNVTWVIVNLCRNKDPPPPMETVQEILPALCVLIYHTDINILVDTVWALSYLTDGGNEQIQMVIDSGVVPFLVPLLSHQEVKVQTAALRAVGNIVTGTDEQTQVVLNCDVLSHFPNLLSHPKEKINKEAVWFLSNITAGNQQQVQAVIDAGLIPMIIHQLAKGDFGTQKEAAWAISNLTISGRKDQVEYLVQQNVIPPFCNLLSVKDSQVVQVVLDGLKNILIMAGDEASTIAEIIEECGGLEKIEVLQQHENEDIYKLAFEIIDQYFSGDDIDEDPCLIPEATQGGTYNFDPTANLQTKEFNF

[5] = target: T5, HeLa cell extract proteins (Homo sapiens, UniProt P11498)
T5 construct: endogenous in cells; host or cells: HeLa cell extract
T5 sequence (P11498 21-1178): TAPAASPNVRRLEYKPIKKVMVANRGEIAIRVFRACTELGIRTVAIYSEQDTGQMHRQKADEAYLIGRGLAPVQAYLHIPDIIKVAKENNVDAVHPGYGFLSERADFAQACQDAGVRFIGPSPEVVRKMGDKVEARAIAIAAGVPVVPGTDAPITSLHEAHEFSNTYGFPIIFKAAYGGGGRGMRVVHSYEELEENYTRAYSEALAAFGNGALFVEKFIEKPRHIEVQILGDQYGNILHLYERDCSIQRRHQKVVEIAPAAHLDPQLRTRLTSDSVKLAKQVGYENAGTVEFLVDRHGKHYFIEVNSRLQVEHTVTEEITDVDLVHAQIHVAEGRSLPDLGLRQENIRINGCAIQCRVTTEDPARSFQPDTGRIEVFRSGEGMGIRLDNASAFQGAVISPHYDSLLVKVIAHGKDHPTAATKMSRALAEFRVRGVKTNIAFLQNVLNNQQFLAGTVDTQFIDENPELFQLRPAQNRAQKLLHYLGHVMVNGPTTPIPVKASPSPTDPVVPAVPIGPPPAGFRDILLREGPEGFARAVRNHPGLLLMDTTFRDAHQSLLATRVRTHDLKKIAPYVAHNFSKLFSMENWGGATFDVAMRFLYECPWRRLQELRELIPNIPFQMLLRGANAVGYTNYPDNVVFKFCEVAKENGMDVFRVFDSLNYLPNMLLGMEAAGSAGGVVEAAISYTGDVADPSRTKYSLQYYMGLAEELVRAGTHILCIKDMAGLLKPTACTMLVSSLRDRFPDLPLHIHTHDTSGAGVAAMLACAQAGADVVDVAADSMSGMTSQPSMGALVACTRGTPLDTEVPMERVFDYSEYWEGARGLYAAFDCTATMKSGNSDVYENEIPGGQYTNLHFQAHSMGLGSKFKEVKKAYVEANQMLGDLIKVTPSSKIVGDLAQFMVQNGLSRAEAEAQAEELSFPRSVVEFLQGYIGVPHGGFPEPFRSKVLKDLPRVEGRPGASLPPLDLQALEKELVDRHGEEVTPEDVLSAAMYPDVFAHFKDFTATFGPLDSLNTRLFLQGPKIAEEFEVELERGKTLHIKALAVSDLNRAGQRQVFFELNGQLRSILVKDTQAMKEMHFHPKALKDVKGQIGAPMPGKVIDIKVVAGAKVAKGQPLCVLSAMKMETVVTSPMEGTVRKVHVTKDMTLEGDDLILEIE

[6] = target: T6, HeLa cell extract proteins (Homo sapiens, UniProt Q9BSE5)
T6 construct: endogenous in cells; host or cells: HeLa cell extract
T6 sequence (Q9BSE5 36-352): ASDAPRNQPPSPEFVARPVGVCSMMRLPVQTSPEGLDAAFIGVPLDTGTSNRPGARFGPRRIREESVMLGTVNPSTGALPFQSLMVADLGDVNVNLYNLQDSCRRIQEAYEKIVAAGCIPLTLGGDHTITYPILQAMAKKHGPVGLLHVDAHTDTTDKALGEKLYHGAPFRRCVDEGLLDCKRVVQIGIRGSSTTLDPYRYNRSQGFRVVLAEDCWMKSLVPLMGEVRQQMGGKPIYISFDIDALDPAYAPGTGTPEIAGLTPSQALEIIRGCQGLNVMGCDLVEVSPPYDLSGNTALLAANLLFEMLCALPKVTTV

T1 sequence (P25786 whole entry): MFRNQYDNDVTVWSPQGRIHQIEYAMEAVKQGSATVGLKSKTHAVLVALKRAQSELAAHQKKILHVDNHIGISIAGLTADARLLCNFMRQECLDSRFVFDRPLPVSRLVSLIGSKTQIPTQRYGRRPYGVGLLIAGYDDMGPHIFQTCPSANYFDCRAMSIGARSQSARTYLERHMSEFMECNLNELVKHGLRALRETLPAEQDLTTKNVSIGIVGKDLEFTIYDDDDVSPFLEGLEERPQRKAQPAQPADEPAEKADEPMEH

Nc1nc2cccc(-c3ccccc3)c2n1Cc1ccc(Cl)c(Cl)c1 [compound 3]
fold changes relative to vehicle control [1]: 0.97
fold changes relative to vehicle control [2]: 1.2

Nc1nc2[nH]cc(CCc3ccc(C(=O)N[C@@H](CCC(=O)O)C(=O)O)cc3)c2c(=O)[nH]1 [PTX, pemetrexed]
fold changes relative to vehicle control [3]: 0.87
fold changes relative to vehicle control [4]: 0.9
fold changes relative to vehicle control [5]: 0.69
fold changes relative to vehicle control [6]: 0.89

Nc1nc2c(c(=O)[nH]1)N(C=O)C(CNc1ccc(C(=O)N[C@@H](CCC(=O)O)C(=O)O)cc1)CN2 (stereo partly shown) [LEU, leucovorin]
fold changes relative to vehicle control ([3]; HeLa, protein TARS2): 0.91
fold changes relative to vehicle control ([4]; HeLa, captured protein KPNA3): 0.9
fold changes relative to vehicle control ([5]; protein PC, HeLa): 0.8
fold changes relative to vehicle control ([6]; protein AGMAT, HeLa): 0.84

CCCCCCOc1cccc(Cc2cnc(N)nc2N)c1 [compound 2]
fold changes relative to vehicle control [1]: 1.36
fold changes relative to vehicle control [2]: 0.96

NCCOCCOCC(=O)Nc1nc2ncc(CNc3ccc(C(=O)NC(CCC(=O)O)C(=O)O)cc3)nc2c(=O)[nH]1 (stereo not shown) [compound 6]
fold changes relative to vehicle control ([3]; HeLa, protein TARS2): 1.13
fold changes relative to vehicle control ([4]; HeLa, captured protein KPNA3): 1.02
fold changes relative to vehicle control ([5]; protein PC, HeLa): 0.97
fold changes relative to vehicle control ([6]; protein AGMAT, HeLa): 0.97

CCCCCCOc1ccc(Cc2cnc(N)nc2N)cc1 [compound 1]
fold changes relative to vehicle control [1]: 1.2
fold changes relative to vehicle control [2]: 1.3

NCCCNc1ccc(C(=O)NC(CCC(=O)O)C(=O)O)cc1 (stereo not shown) [compound 7]
fold changes relative to vehicle control ([3]; HeLa, protein TARS2): 1
fold changes relative to vehicle control ([4]; HeLa, captured protein KPNA3): 0.87
fold changes relative to vehicle control ([5]; protein PC, HeLa): 1.1
fold changes relative to vehicle control ([6]; protein AGMAT, HeLa): 0.93
